{"source": "paper PMC6773865", "about": "“Functional recruitment of dynamin requires multimeric interactions for efficient endocytosis” (Nature Communications, 2019)", "key": {"[1]": {"test_system": "rat brain lysate proteins", "experiment": "Affinity isolation (pull-down) from rat brain lysate, silver stain and proteomics", "type": "binding", "conditions": "for proteins pulled down (silver stain, words): biotinylated peptide, rat brain lysate, streptavidin beads; for enrichment of co-precipitated proteins by mass spectroscopy: in comparison to control conditions (absence of peptide)", "description": "Brains were obtained from adult (2–3 months old) Sprague-Dawley rats raised in the animal facility of Bordeaux University B 33 063 917. Animals were killed by decapitation after isoflurane anaesthesia (5%, 3 min), in accordance with the European 2010/63/EU directive and approved by the Bordeaux University Ethics Committee (CE50). Frozen brains (2 × ~1.5 g) were thawed in 20 mL ice cold modified RIPA buffer (50 mM Tris pH 7.5, 150 mM NaCl, 0.1% SDS, 0.5% sodium deoxycholate, 1% NP-40, 1 mM EDTA) containing a protease inhibitor mixture (1:1000; Protease Inhibitor Cocktail set III; Calbiochem) for about 5 min and cut into small pieces. The tissues were homogenised using a glass/teflon homogeniser. Homogenates were centrifuged at 7500 × g for 25 min at 4 °C to remove cell debris. The supernatant was aliquoted and stored at −80 °C until the affinity-based isolation (pull-down) experiments were performed. Streptavidin-coated beads (Dynabeads M-280, Life Technologies) were washed three times and incubated for 15 min at room temperature (RT) in modified RIPA buffer supplemented with 0.1% BSA. Rat brain lysates were incubated with the biotinylated peptide (or biotin as a negative control) for 10 min at RT before addition of the beads and further incubation for 5 min at RT. Beads were washed five times in RIPA buffer and transferred into new eppendorf tubes. For elution, acetylated ligands were added in excess to the bead suspension and incubated for 5 min at RT. The supernatant was kept for proteomics analysis and electrophoresis followed by silver staining after addition of fresh 6× sample buffer (ProteoSilver Silver Stain Kit, Sigma-Aldrich).\nSamples were solubilized in Laemlli buffer and were deposited in triplicate onto SDS-PAGE. Separation was stopped once proteins have entered resolving gel. After colloidal blue staining, bands were cut out from the SDS-PAGE gel and subsequently cut in 1 mm × 1 mm gel pieces. Gel pieces were destained in 25 mM ammonium bicarbonate 50% MeCN, rinsed twice in ultrapure water and shrunk in MeCN for 10 min. After MeCN removal, gel pieces were dried at room temperature, covered with the trypsin solution (10 ng/µl in 50 mM NH4HCO3), rehydrated at 4 °C for 10 min, and finally incubated overnight at 37 °C. Spots were then incubated for 15 min in 50 mM NH4HCO3 at room temperature with rotary shaking. The supernatant was collected, and an H2O/MeCN/HCOOH (47.5:47.5:5) extraction solution was added onto gel slices for 15 min. The extraction step was repeated twice. Supernatants were pooled and dried in a vacuum centrifuge to a final volume of 25 µL. Digests were finally resuspended in 25 µl of formic acid (5%, v/v) and stored at −20 °C.\nPeptide mixture was analysed on a Ultimate 3000 nanoLC system (Dionex, Amsterdam, The Netherlands) coupled to a nanospray LTQ-Orbitrap XL mass spectrometer (ThermoFinnigan, San Jose, CA). Ten microliters of peptide digests were loaded onto a 300-µm-inner diameter × 5-mm C18 PepMap^TM trap column (LC Packings) at a flow rate of 30 µL/min. The peptides were eluted from the trap column onto an analytical […] × 15-cm C18 Pep-Map column (LC Packings) with a 4–40% linear gradient of solvent B in 35 min (solvent A was 0.1% formic acid in 5% MeCN, and solvent B was 0.1% formic acid in 80% MeCN). The separation flow rate was set at 300 nL/min. The mass spectrometer operated in positive ion mode at a 2-kV needle voltage. Data were acquired in a data-dependent mode. Mass spectrometry (MS) scans (m/z 300–1700) were recorded at a resolution of R = 70,000 (@ m/z 400) and an AGC target of 5 × 10^5 ions collected within 500 ms. Dynamic exclusion was et to 30 s and top 6 ions were selected from fragmentation in CID mode. MS/MS scans with a target value of 1 × 10^4 ions were collected in the ion trap with a maximum fill time of 200 ms. Additionally, only +2 and +3 charged ions were selected for fragmentation. […]"}, "GST-amphSH3 (dimeric)": {"target": "T1, GST-amphSH3 (dimeric) (Mus musculus, UniProt Q7TQF7)", "T1 construct": "murine Ampiphysin1 SH3 domain residues 607–686); made in house; host or cells: E. coli BL21-CodonPlus (DE3)-RIPL", "T1 sequence (Q7TQF7 607-686)": "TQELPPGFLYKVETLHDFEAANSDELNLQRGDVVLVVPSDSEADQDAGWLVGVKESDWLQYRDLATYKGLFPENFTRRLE", "experiment": "SPR, dimeric GST-amphSH3 on immobilized peptides", "type": "binding, murine", "conditions": "below 1 µM"}, "[2]": {"target": "SH3 domain of amphiphysin (amphSH3)", "conditions": "read-out: affinity for amphSH3; cited from earlier work", "excerpt": "The large GTPase dynamin is essential for vesicle scission[6] and is primarily recruited at the last steps of vesicle formation[4],[7],[8]. Many aspects of the function of this indispensable protein have been deciphered[9] but how its recruitment is regulated in cells is still a matter of debate. In this regard, the C-terminal proline/arginine rich domain of dynamin (dynPRD) is critical. It is a major interaction hub for Src-homology domain 3 (SH3) domain-containing endocytic accessory proteins[10] that bears several class I (RxxPxxP) and class II (PxxPxR) SH3-binding motifs (where P is prolin ..."}, "[3]": {"conditions": "pull-down from rat brain lysate, LC-MS/MS, vs no peptide control"}}}
{"compound": "CC(=O)N[C@@H](Cc1ccc(O)cc1)C(=O)N[C@@H](CCCCn1cc(CCC(=O)NCCCOCCOCCOCCCNC(=O)CCC(=O)NCCCOCCOCCOCCCNC(=O)CCC(=O)NCCCOCCOCCOCCCNC(=O)CCC(=O)N2CCC[C@H]2C(=O)N2CCC[C@H]2C(=O)N2CCC[C@H]2C(=O)N[C@@H](CCC(N)=O)C(=O)N[C@H](C(=O)N2CCC[C@H]2C(=O)N[C@@H](CO)C(=O)N[C@@H](CCCNC(=N)N)C(=O)N2CCC[C@H]2C(=O)N[C@@H](CC(N)=O)C(=O)N[C@@H](CCCNC(=N)N)C(=O)N[C@@H](C)C(=O)N2CCC[C@H]2C(=O)N2CCC[C@H]2C(=O)NCC(N)=O)C(C)C)nn1)C(=O)NCCCOCCOCCOCCCNC(=O)CCC(=O)NCCCOCCOCCOCCCNC(=O)CCC(=O)NCCCOCCOCCOCCCNC(=O)CCC(=O)N1CCC[C@H]1C(=O)N1CCC[C@H]1C(=O)N1CCC[C@H]1C(=O)N[C@@H](CCC(N)=O)C(=O)N[C@H](C(=O)N1CCC[C@H]1C(=O)N[C@@H](CO)C(=O)N[C@@H](CCCNC(=N)N)C(=O)N1CCC[C@H]1C(=O)N[C@@H](CC(N)=O)C(=O)N[C@@H](CCCNC(=N)N)C(=O)N[C@@H](C)C(=O)N1CCC[C@H]1C(=O)N1CCC[C@H]1C(=O)NCC(N)=O)C(C)C", "note": "[dD15-N]", "values": [{"measurement": "proteins pulled down (silver stain, words)", "setting": "[1]", "result": "isolated a number of proteins"}, {"measurement": "enrichment of co-precipitated proteins by mass spectroscopy", "setting": "[1]", "result": "highly enriched in CME related proteins"}, {"measurement": "Max fold change, AP2a1", "setting": "[1]; [3]", "result": 28.6}, {"measurement": "Max fold change, AP2a2", "setting": "[1]; [3]", "result": 13.8}, {"measurement": "Max fold change, AP2b1", "setting": "[1]; [3]", "result": 40.0}, {"measurement": "Max fold change, AP2m1", "setting": "[1]; [3]", "result": 25.5}, {"measurement": "Max fold change, Actg1", "setting": "[1]; [3]", "result": 2.2}, {"measurement": "Max fold change, Actg2", "setting": "[1]; [3]", "result": 2.3}, {"measurement": "Max fold change, Amphiphysin1", "setting": "[1]; [3]", "result": 40.7}, {"measurement": "Max fold change, Amy1a", "setting": "[1]; [3]", "result": 2.8}, {"measurement": "Max fold change, Appbp2", "setting": "[1]; [3]", "result": 20.8}, {"measurement": "Max fold change, Atp1a3", "setting": "[1]; [3]", "result": 33.4}, {"measurement": "Max fold change, BIN1 (Amph2)", "setting": "[1]; [3]", "result": 70.2}, {"measurement": "Max fold change, CD2-ap", "setting": "[1]; [3]", "result": 124.5}, {"measurement": "Max fold change, CHC", "setting": "[1]; [3]", "result": 22.7}, {"measurement": "Max fold change, Calcoco1", "setting": "[1]; [3]", "result": 11.9}, {"measurement": "Max fold change, Capza1", "setting": "[1]; [3]", "result": 23.0}, {"measurement": "Max fold change, Dnm1", "setting": "[1]; [3]", "result": 27.4}, {"measurement": "Max fold change, Endophilin-A1", "setting": "[1]; [3]", "result": 53.5}, {"measurement": "Max fold change, Endophilin-A2", "setting": "[1]; [3]", "result": 1.7}, {"measurement": "Max fold change, Eps15l1", "setting": "[1]; [3]", "result": 196.9}, {"measurement": "Max fold change, Hspa5", "setting": "[1]; [3]", "result": 4.1}, {"measurement": "Max fold change, Hspa8", "setting": "[1]; [3]", "result": 15.6}, {"measurement": "Max fold change, Hspa9", "setting": "[1]; [3]", "result": 42.1}, {"measurement": "Max fold change, Intersectin-1", "setting": "[1]; [3]", "result": 60.7}, {"measurement": "Max fold change, Intersectin-2", "setting": "[1]; [3]", "result": 118.9}, {"measurement": "Max fold change, Rundc3a", "setting": "[1]; [3]", "result": 16.0}, {"measurement": "Max fold change, SH3d19", "setting": "[1]; [3]", "result": 42.9}, {"measurement": "Max fold change, SH3kbp1/CIN85", "setting": "[1]; [3]", "result": 207.5}, {"measurement": "Max fold change, SNX18", "setting": "[1]; [3]", "result": 16.1}, {"measurement": "Max fold change, Tuba1a", "setting": "[1]; [3]", "result": 13.3}, {"measurement": "Max fold change, Tuba4a", "setting": "[1]; [3]", "result": 14.5}, {"measurement": "Max fold change, Tubb2a", "setting": "[1]; [3]", "result": 75.4}, {"measurement": "Max fold change, Tubb3", "setting": "[1]; [3]", "result": 1.2}, {"measurement": "Max fold change, Tubb4a", "setting": "[1]; [3]", "result": 43.4}, {"measurement": "Max fold change, Tubb5", "setting": "[1]; [3]", "result": 18.0}, {"measurement": "Max fold change, Ubc", "setting": "[1]; [3]", "result": 1.2}]}
{"compound": "Ac-YPPPQVPSRPNRAPPG-NH2 [D15, reference compound]", "values": [{"measurement": "binding of GST-amphSH3", "setting": "GST-amphSH3 (dimeric)", "result": "no measureable binding"}, {"measurement": "proteins pulled down (silver stain, words)", "setting": "[1]", "result": "unable to pull down any detectable amount of protein"}, {"measurement": "enrichment of co-precipitated proteins by mass spectroscopy", "setting": "[1]", "result": "failed to show any significant enrichment"}, {"measurement": "Max fold change, BIN1 (Amph2)", "setting": "[1]; [3]", "result": 0.163}, {"measurement": "Max fold change, CD2-ap", "setting": "[1]; [3]", "result": 0.01}, {"measurement": "Max fold change, Endophilin-A1", "setting": "[1]; [3]", "result": 0.001}, {"measurement": "Max fold change, Intersectin-2", "setting": "[1]; [3]", "result": 0.944}, {"measurement": "Max fold change, SH3d19", "setting": "[1]; [3]", "result": 0.232}, {"measurement": "Max fold change, SH3kbp1/CIN85", "setting": "[1]; [3]", "result": 0.205}, {"measurement": "Max fold change, any SH3 domain-containing protein", "setting": "[1]; [3]", "result": "< 1"}, {"measurement": "Kd", "setting": "[2]", "result": 90, "unit": "µM"}]}
